Data as given in article PMC4197335, “Cancer-Selective Targeting of the NF-κB Survival Pathway with GADD45β/MKK7 Inhibitors” (Cancer Cell, 2014).
Where two headings read alike, the source gives them in different places. Blank lines part the entries; values can stand above or below the compound they belong to. Where a SMILES comes first, the peptide text is derived from it. [ ]: non-standard residue; d: D form. The star is where a group is joined. Cbz = O=C(OCc1ccccc1)*

How the values were obtained:
[1] = aqueous solubility; format: physicochemical
[2] = biological target: T1, GADD45β/MKK7 complex (Homo sapiens, UniProt O14733); assay: ELISA GADD45β/MKK7 competition assay; format: binding; details: for inhibition at 0.042 µM: peptide at 42 nM
T1 construct: Full-length human (h)MKK7 was expressed as a protein fused to an N-terminal GST tag (GST-MKK7); made in house
T1 sequence (O14733 1-419): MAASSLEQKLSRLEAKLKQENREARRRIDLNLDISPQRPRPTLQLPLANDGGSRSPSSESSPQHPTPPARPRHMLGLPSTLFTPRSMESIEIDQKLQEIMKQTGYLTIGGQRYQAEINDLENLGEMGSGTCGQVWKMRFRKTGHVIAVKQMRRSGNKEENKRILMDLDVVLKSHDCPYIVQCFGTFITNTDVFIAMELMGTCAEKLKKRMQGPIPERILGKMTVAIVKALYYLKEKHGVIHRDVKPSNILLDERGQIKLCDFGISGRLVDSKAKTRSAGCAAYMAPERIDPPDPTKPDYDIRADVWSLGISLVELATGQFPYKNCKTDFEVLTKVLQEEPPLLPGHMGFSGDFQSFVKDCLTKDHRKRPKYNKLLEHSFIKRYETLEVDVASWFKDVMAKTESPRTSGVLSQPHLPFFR
Text: Additional details are provided in Supplemental Experimental Procedures.
(1:1,000) and the HRP chromogenic substrate, o -phenylenediamine (OPD). GST -coated wells wer e […]
The ELISA competition screen used f or the isolation of antagonists of the GADD45β /MKK7 […]
The library deconvolution strategy used for this screen was described previously […]
General information about this type of screens can be found elsewhere […]
Values were expressed as the percentage of inhibition of His6-hGADD45β binding to GST-hMKK7 relative to the binding measured in the absence of […]
Dose-response, ELISA GADD45β /MKK7 competition assays were carried out under similar […]
As part of the SAR analysis and lead optimization process, where appropriate, competitors were tested at a concentration up to 100 nM. In order to determine their stability in biolog ical f luids , peptides were incubated at the concentration of 10 µM in […]
calculated using at least 7 concentrations of peptide and def ined as the mean concentration of peptide […]
the absence of competitor. W here indicated, values were expressed as the percentage of inhibition of His 6 -hGADD45β binding to GST-hMKK7 relative to the binding measured in the absence of competitor.
GST was used as a control in all the experiments. […]
tetrapeptide used as negative control in some of the ELISA and cellular assays was as f ollows: z -DNC, z-T yr -Asp-His-Gln-NH 2 . […]

[3] = tested on: U266 MM cells; details: read-out: IC50 (U266 cells); Table S3; day 6; [3H]thymidine incorporation or trypan blue exclusion
[4] = Table S4, read-out: IC50s (ELISA)
[5] = Table S4, values marked (#), read-out: % inhibition of (ELISA)
[6] = Table S3, peptide at 10 nM, read-out: % inhibition (ELISA)
[7] = Table S3, read-out: IC50 (ELISA)
[8] = read-out: % inhibition of (ELISA)

SMILES: CC(=O)N[C@H](Cc1ccc(O)cc1)C(=O)N[C@H](CCC(=O)O)C(=O)N1CCC[C@@H]1C(=O)N[C@H](Cc1ccccc1)C(N)=O [Ac-YEPF-NH2] (Ac-[dY][dE][dP][dF]-NH2)
- inhibition at 0.042 µM [2, 5]: 13%

SMILES: CC(=O)N[C@H](Cc1ccc(O)cc1)C(=O)N[C@H](CCC(=O)O)C(=O)N[C@H](CCCNC(=N)N)C(=O)N[C@H](C)C(N)=O [Ac-YERA-NH2] (Ac-[dY][dE][dR][dA]-NH2)
- inhibition at 0.01 µM ([2]; Table S4, values marked (##), peptide at 10 nM, read-out: % inhibition of (ELISA)): 28%

SMILES: NC(=O)[C@@H](Cc1ccccc1)NC(=O)[C@@H](Cc1c[nH]cn1)NC(=O)[C@@H](CC(=O)O)NC(=O)[C@@H](Cc1ccc(O)cc1)NC(=O)c1ccccc1 [Benzoyl-YDHF-NH2]
- IC50 [3]: > 10000 nM
- IC50 [2]: > 10 nM
- inhibition at 0.01 µM ([2]; read-out: % inhibition (ELISA)): 0%
- inhibition at 0.01 µM [2, 8]: 1%

SMILES: NC(=O)CC[C@@H](NC(=O)[C@@H](Cc1c[nH]cn1)NC(=O)[C@@H](CC(=O)O)NC(=O)[C@@H](Cc1ccc(O)cc1)NC(=O)c1ccccc1)C(N)=O [Benzoyl-YDHQ-NH2]
- IC50 [3]: > 10000 nM
- IC50 [2]: > 10 nM
- inhibition at 0.01 µM ([2]; read-out: % inhibition (ELISA)): 1%
- inhibition at 0.01 µM [2, 8]: 0%

SMILES: N=C(N)NCCC[C@@H](NC(=O)[C@@H](CCC(=O)O)NC(=O)[C@@H](Cc1ccc(O)cc1)NC(=O)c1ccccc1)C(=O)N[C@H](Cc1ccccc1)C(N)=O [Benzoyl-YERF-NH2]
- IC50 [3]: > 10000 nM
- IC50 [2]: > 10 nM
- inhibition at 0.01 µM ([2]; read-out: % inhibition (ELISA)): 24%

SMILES: NC(=O)CC[C@@H](NC(=O)[C@@H](Cc1c[nH]cn1)NC(=O)[C@@H](CC(=O)O)NC(=O)[C@@H](Cc1ccc(O)cc1)NC(=O)OCC1c2ccccc2-c2ccccc21)C(N)=O [Fmoc-YDFQ-NH2]
- inhibition at 0.01 µM [2, 6]: 19%

SMILES: NC(=O)[C@@H](Cc1ccccc1)NC(=O)[C@@H](Cc1c[nH]cn1)NC(=O)[C@@H](CC(=O)O)NC(=O)[C@@H](Cc1ccc(O)cc1)NC(=O)OCC1c2ccccc2-c2ccccc21 [Fmoc-YDHF-NH2]
- inhibition at 0.01 µM [2, 6]: 58%
- IC50 [2, 7]: < 10 nM

SMILES: NC(=O)[C@@H](Cc1ccccc1)NC(=O)[C@@H](Cc1c[nH]cn1)NC(=O)[C@H](N)Cc1ccc(O)cc1 [H-YHF-NH2]
- IC50 [2, 4]: 0.65 nM

SMILES: N=C(N)NCCC[C@@H](NC(=O)[C@H](N)Cc1ccc(O)cc1)C(=O)N[C@H](Cc1ccc(O)cc1)C(N)=O [H-YRY-NH2]
- IC50 [2, 4]: 0.75 nM

SMILES: CCCCCCCCCCCCCC(=O)N[C@H](Cc1ccc(O)cc1)C(=O)N[C@H](CC(=O)O)C(=O)N[C@H](Cc1c[nH]cn1)C(=O)N[C@H](Cc1ccccc1)C(N)=O [Myr-YDHF-NH2]
- IC50 [3]: > 10000 nM
- inhibition at 0.01 µM [2, 6]: 26%
- IC50 [2, 7]: > 10 nM

The next lines start with the values.

- aqueous solubility [1]: low
- inhibition at 0.042 µM ([2]; Table S2, read-out: % inhibition (ELISA)): 93%
- IC50 [2, 4]: < 42 nM
SMILES: CC(=O)N[C@@H](Cc1c[nH]c2ccccc12)C(=O)N[C@@H](CC(=O)O)C(=O)N[C@@H](CCCNC(=N)N)C(=O)N[C@@H](Cc1c[nH]c2ccccc12)C(N)=O [Ac-WDRW-NH2] (Ac-WDRW-NH2)

- inhibition at 0.01 µM [2, 6]: 6%
- IC50 [2, 7]: > 10 nM
SMILES: CC(=O)N[C@H](Cc1ccc(O)cc1)C(=O)N[C@H](CCC(=O)O)C(=O)N[C@H](CCCNC(=N)N)C(=O)N[C@H](Cc1ccccc1)C(=O)N[C@H](CCCCNC(=O)OCc1ccccc1)C(N)=O [Ac-YERFK(εZ)-NH2] (Ac-[dY][dE][dR][dF][dK](Cbz)-NH2)

- inhibition at 0.042 µM [2, 5]: 0%
SMILES: CC(=O)N[C@H](Cc1ccc(O)cc1)C(=O)N[C@H](CCC(=O)O)C(=O)N[C@H](CCCNC(=N)N)C(=O)N1CCC[C@@H]1C(N)=O [Ac-YERP-NH2] (Ac-[dY][dE][dR][dP]-NH2)

- inhibition at 0.042 µM [2, 5]: 13%
SMILES: CC(=O)N[C@H](Cc1ccc(O)cc1)C(=O)N1CCC[C@@H]1C(=O)N[C@H](CCCNC(=N)N)C(=O)N[C@H](Cc1ccccc1)C(N)=O [Ac-YPRF-NH2] (Ac-[dY][dP][dR][dF]-NH2)

- inhibition at 0.01 µM [2, 6]: 60%
- IC50 [2, 7]: < 10 nM
SMILES: N=C(N)NCCC[C@@H](NC(=O)[C@@H](CCC(=O)O)NC(=O)[C@@H](Cc1ccc(O)cc1)NC(=O)OCC1c2ccccc2-c2ccccc21)C(=O)N[C@H](Cc1ccccc1)C(N)=O [Fmoc-YERF-NH2]
